Assays:
[1] = standard tests by Dr. Kirk Sperber, unpublished data; cited from earlier work
[2] = test system: Human umbilical cord vein endothelial cells (HUCVEC); test: HUCVEC Assays 2 and 3: starvation; type: cell-based; details: 11 days without change of medium
Method: Glucural was also tested on two primer cell cultures for protection against cell death in sub-optimal conditions.
Human umbilical cord vein endothelial cells (HUCVEC) were isolated from freshly obtained human umbilical cords in accordance with known methods. HUCVEC were grown in multi-well plates. After saturation of the wells, the assays were initiated. Four wells were used for each experimental group. To cause “mechanical” damage, a higher (2-2½ times) centrifugal speed was used to pick up cells after trypsin treatment. To cause enzymatic damage, full-strength trypsin solution was used instead of the recommended diluted concentration. All assays were started from the last change of medium in wells with saturated cell culture (well bottoms were covered completely by cells). Results were estimated from the percentage of the bottom covered by cells on the last day of the assay.
Assay 2 and 3. Starvation—cell growth without change of medium during 11 days. Assays 2 and 3 were performed using two different HUCVEC isolations.

Drosophila [3] = test: X-ray caused loss of X-chromosomes in late oocyte of Drosophila; type: in vivo; details: 1000 Roentgens
Drosophila [4] = test: Sterol-deficit diet and both drugs: frequency of X-chromosomes loss in late oocytes of Drosophila; type: in vivo
Excerpt: The classic genetic model was used, based on the well-known method: the frequency of mutations in Drosophila (fruit flies) caused by X-rays. It is known that the frequency of these mutations can be increased by adding to the food of females certain membrane destabilizers (we used Polyene Antibiotics—Amphotericin B), or by the use of a special diet. Like all insects, Drosophila obtain all of their sterols from food (yeast for Drosophila). A special diet rich with Nistatin (Polyene antibiotic) resistant yeast was used.
The frequency of the loss of x-chromosomes (males excluded) was measured after crossing with the […]. Females were given a dose of 1000 Roentgens 5 days before being given the food additive or “special diet”.
Influence of sterol-deficit diet and both drugs on the frequency of X-chromosomes loss in late oocytes of Drosophila. Groups 1-4 received yeast of wild type, groups 5,6 (diet) received nistatin resistant yeasts meaning groups 5,6 had abnormal sterols in membranes: […]

mice = test: Toxicity LD50; type: in vivo
[5] = test system: Mouse erythroleukemia (MEL) cells; test: Growth activity following maximal cell damage (two freeze/thaw cycles, 10% DMSO); type: cell-based
Method: Mouse erythroleukemia (MEL) cells were damaged from exposure to two freeze/thaw cycles. The cells were then grown in the presence of 10% dimethylsulfoxide (DMSO), a substance known to damage cell membranes. […] The cells were then subjected to two freeze/thaw cycles (the cells were quickly brought to −135° C., incubated for 1 hour at −135° C. and quickly thawed to 100% humidity and 37° C.). The cell concentration was then determined by counting, using a hematocytometer. The experiments were done in duplicate.

[6] = test system: HUCVEC exposed to human TNF-alpha; test: HUCVEC Assays 4-6: exposure to human TNF-alpha, trypan-blue test; type: cell-based; details: Glucural 500 mkg/ml
Method: To test for cell damage, HUCVEC were exposed for period of 6 to 24 hours to the human TNF-alpha. The trypan-blue test was used. After exposure, mono-layers were removed by trypsin treatment. Results were estimated based on the percentage of colored dead cells in the mono-layer.

Shelf life = type: physicochemical; details: ambient temperatures
Intact MEL cells = test: Cell toxicity of Glucural in intact conditions: growth of MEL; type: cell-based, mouse; details: for number of cells per ml, Regular conditions: 24 hours
[7] = test system: neurons from rat embryos brains; test: Survival of rat embryo brain neurons after mechanical damage; type: cell-based; details: for number of live neurons vs culture without Glucural: 500 mkg/ml
Excerpt: One particularly attractive application of the cytoprotective quality of 6-methyluracil compounds is to extend the life span of primer cell cultures. Primer cell cultures are cell cultures obtained from various tissues. They are used routinely for new drug screening in pharmaceutical industry. The problem associated with many primer cell cultures is their general inability to propagate and grow, leading to their early death and therefore limiting their use in drug research. For example, a rat embryo brain neuron cell culture has about 80% mortality in 12-14 days.
The following is an example of the difficulty in maintaining the survival rate of primer cell cultures. […] The term “growing” of these primer cell cultures means maintaining their survival for a 10-15 day period. But these cell cultures are very valuable as test objects and are commonly used for the initial testing of new drugs (drug screening). Glucural was tested on the neurons from rat embryos brains that were transferred into cell cultures. The viability of these neurons was tested during 2 stages of the production of embryonic neuron cell cultures: 1) mechanical disassembly and washing, and 2) the “growing” of the cell culture.
After 7 days, this ratio increased to nearly triple as shown on FIGS. 1 and 2.

Q: For “complex of 2,4-dihydroxy-6-methylpyrimidine with N-methyl-D-glucamine [Glucural]”, which “anti-inflammatory action compared with thalidomide” value [1] is on record?
A: equal anti-inflammatory action as thalidomide

Q: And the “Percent of well-bottoms covered by cells” value ([2]; Assay 2, Glucural 300 mkg/ml)?
A: 70-80%

Q: And the “Percent of well-bottoms covered by cells” value ([2]; Assay 2, Glucural 400 mkg/ml)?
A: 80-90%

Q: And the “Percent of well-bottoms covered by cells” value ([2]; Assay 2, Glucural 500 mkg/ml)?
A: 80-90%

Q: What about the “Percent of well-bottoms covered by cells” value ([2]; Assay 3, Glucural 300 mkg/ml) of the same substance?
A: 100%

Q: What about the “Percent of well-bottoms covered by cells” value ([2]; Assay 3, Glucural 400 mkg/ml) of the same substance?
A: 100%

Q: And the “Percent of well-bottoms covered by cells” value ([2]; Assay 3, Glucural 500 mkg/ml)?
A: 100%

Q: And the “Frequency of the loss of X-chromosomes, %” value (shortened to “Frequency of the loss … %”) (Drosophila [3]; 1.0 mkg/female)?
A: 1.7 ± 0.21%

Q: And the “Frequency of the loss … %” value (Drosophila [3]; 2.0 mkg/female)?
A: 1.1 ± 0.20%

Q: And the “Frequency of the loss … %” value (Drosophila [3]; 2.5 mkg/female)?
A: 0.9 ± 0.18%

Q: And the “Frequency of the loss … %” value (Drosophila [3]; 5.0 mkg/female)?
A: 0.7 ± 0.14%

Q: What about the “Frequency of the loss … %” value (Drosophila [3]; 10.0 mkg/female) of the same substance?
A: 1.2 ± 0.19%

Q: What about the “Protective Effect of Glucural, %” value (Drosophila [4]; Amphotericin B/Glucural vs Amphotericin B) of the same substance?
A: 26%

Q: What about the “Frequency of X-Chromosomes loss, %” value (Drosophila [4]; Diet (nistatin resistant yeasts)) of the same substance?
A: 4.1 ± 0.33%

Q: And the “Protective Effect of Glucural, %” value (Drosophila [4]; Diet/Glucural vs Diet)?
A: 27%

Q: And the “Protective Effect of Glucural, %” value (Drosophila [4]; Glucural vs Control)?
A: 50%

Q: And the “Frequency of X-Chromosomes loss, %” value (Drosophila [4]; yeast of wild type)?
A: 0.9 ± 0.14%

Q: What about the “LD50 equivalent for a 50-kg person” value (mice; extrapolated from mice) of the same substance?
A: 100 g

Q: And the LD50 (mice; mice)?
A: about 2 g/kg

Q: And the “The number of cells per 1 ml” value ([5]; Glucural 5 mkg/ml)?
A: 0 ×10^4

Q: What about the “The number of cells per 1 ml” value ([5]; Glucural 10 mkg/ml) of the same substance?
A: 0 ×10^4

Q: And the “The number of cells per 1 ml” value ([5]; Glucural 25 mkg/ml)?
A: 53 ± 7 ×10^4

Q: What about the “The number of cells per 1 ml” value ([5]; Glucural 50 mkg/ml) of the same substance?
A: 107 ± 7 ×10^4

Q: What about the “Percent of dead cells in mono-layer” value ([6]; Assay 4, 24 hours, TNF-alpha 20 ng/ml) of the same substance?
A: 10.3 ± 1.3%

Q: What about the “Percent of dead cells in mono-layer” value ([6]; Assay 4, 24 hours, no TNF-alpha) of the same substance?
A: 4.4 ± 0.4%

Q: What about the “Percent of dead cells in mono-layer” value ([6]; Assay 5, 8 hours, TNF-alpha 10 ng/ml) of the same substance?
A: 4.1 ± 0.4%

Q: And the “Percent of dead cells in mono-layer” value ([6]; Assay 5, 8 hours, TNF-alpha 20 ng/ml)?
A: 5.4 ± 0.4%

Q: What about the “Percent of dead cells in mono-layer” value ([6]; Assay 5, 8 hours, no TNF-alpha) of the same substance?
A: 5.7 ± 0.5%

Q: What about the “Percent of dead cells in mono-layer” value ([6]; Assay 6, 6 hours, TNF-alpha 40 ng/ml) of the same substance?
A: 10.9 ± 3.4%

Q: And the “Percent of dead cells in mono-layer” value ([6]; Assay 6, 6 hours, no TNF-alpha)?
A: 13.8 ± 2.7%

Q: And the shelf life (Shelf life)?
A: more than 10 years

Q: And the “number of cells per ml, Regular conditions” value (“number of cells per ml” for short) (Intact MEL cells; Glucural 25 mkg/ml)?
A: 67 ± 1 x 10^4

Q: What about the “number of cells per ml” value (Intact MEL cells; Glucural 50 mkg/ml) of the same substance?
A: 68 ± 1 x 10^4

Q: And the “number of cells per ml” value (Intact MEL cells; Glucural 100 mkg/ml)?
A: 71 ± 2 x 10^4

Q: And the “number of cells per ml” value (Intact MEL cells; Glucural 200 mkg/ml)?
A: 58 ± 3 x 10^4

Q: What about the “number of cells per ml” value (Intact MEL cells; Glucural 400 mkg/ml) of the same substance?
A: 69 ± 5 x 10^4

Q: And the “influence on cells in regular conditions” value (Intact MEL cells; Glucural from 25 to 400 mkg/ml)?
A: no influence

Q: What about the “increase of life span of rat embryo brain neuron cell culture” value [7] of the same substance?
A: more than two fold

Q: And the “number of live neurons vs culture without Glucural” value ([7]; after 7 days)?
A: nearly triple

Q: What about the “number of live neurons vs culture without Glucural” value ([7]; after one day) of the same substance?
A: more than double
